Test results taken from BindingDB's records for doi:10.1016/S0045-2068(03)00026-9 (Keio University, 2003).

The compounds below were run against T1, Polyphenol oxidase 2 (Agaricus bisporus, UniProt O42713) (assay: Spectrophotometic Assay). Settings: pH 6.8; 30 °C.
T1 sequence (O42713 whole entry): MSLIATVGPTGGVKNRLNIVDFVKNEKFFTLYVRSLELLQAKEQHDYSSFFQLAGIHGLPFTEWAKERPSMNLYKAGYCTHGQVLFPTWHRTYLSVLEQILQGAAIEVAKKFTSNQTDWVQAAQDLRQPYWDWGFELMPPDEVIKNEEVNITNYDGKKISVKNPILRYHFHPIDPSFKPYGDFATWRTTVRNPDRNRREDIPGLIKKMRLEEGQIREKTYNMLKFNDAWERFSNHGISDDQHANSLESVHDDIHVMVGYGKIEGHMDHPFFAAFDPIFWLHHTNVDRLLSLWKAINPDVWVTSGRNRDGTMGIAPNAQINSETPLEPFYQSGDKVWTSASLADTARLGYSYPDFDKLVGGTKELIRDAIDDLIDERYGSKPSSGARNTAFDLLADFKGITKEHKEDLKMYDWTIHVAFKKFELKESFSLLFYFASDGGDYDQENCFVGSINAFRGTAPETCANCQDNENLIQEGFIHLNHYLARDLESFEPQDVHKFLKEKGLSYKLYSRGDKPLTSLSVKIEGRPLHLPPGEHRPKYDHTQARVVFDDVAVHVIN
Excerpt: The IC50 values were obtained from a spectrophotometric assay.

Compared with `O=NN(O)Cc1ccccc1O` [N-nitrosohydroxylamine N-substituted, 4], `O=NN(O)Cc1ccc(O)cc1O` [N-nitrosohydroxylamine N-substituted, 7] is 1.7-fold lower in IC50: 19.2 µM for the first, 11.6 µM for the second. The second is the more potent here.

`O=NN(O)Cc1cccc(O)c1` [N-nitrosohydroxylamine N-substituted, 5] and `O=NN(O)Cc1ccc(O)cc1` [N-nitrosohydroxylamine N-substituted, 6] are within 1.5-fold of each other in IC50: 20.3 µM for the first, 13.7 µM for the second.

Compared with `O=NN(O)Cc1cc(O)ccc1O` [N-nitrosohydroxylamine N-substituted, 8], `O=NN(O)Cc1ccc(Cl)cc1` [N-nitrosohydroxylamine N-substituted, 9] is 1.8-fold lower in IC50: 23.8 µM for the first, 13.1 µM for the second. The second is the more potent here.

First: COc1ccc(CN(O)N=O)cc1 [N-nitrosohydroxylamine N-substituted, 10]
Second: CC(C)(C)c1ccc(CN(O)N=O)cc1 [N-nitrosohydroxylamine N-substituted, 11]
The IC50 of the first is 1.6-fold lower: 9.7 µM for the first, 15.8 µM for the second. The first is the more potent here.
